Measured values: patent US8895549B2, “Aminoalcohol substituted 2,3-dihydroimidazo[1,2-c]quinazoline derivatives useful for treating hyper-proliferative disorders and diseases associated with angiogenesis” (Bayer Intellectual Property GmbH, priority 2010, dated 2014)

Legend:
[1] = target: PI3Kα (complex of human p110α and human p85α) (Homo sapiens (Human), UniProt P42336); assay: PI3Kα kinase assay (HTRF-based PI3K inhibition assay); format: biochemical; conditions: for inhibition at 0.93 µM: 0.93 μM compound, read-out: PI3K alpha average % Inhibition at 0.93 μM; for IC50: 10 μM ATP, 10 μM PIP2, 20 min at 22° C., read-out: average IC50 in the PI3K alpha biochemical assay;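 on all read-outs here: PIP3 product detected by HTRF, reading resonance energy transfer from Europium-labeled anti-GST antibody to Streptavidin-APC, as displacement of biotinylated PIP3 tracer from the GST-PH domain complex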
Description: (§1) Determination of % Inhibition and IC50 Values of Compounds in PI3Kα Kinase Assay
PI3Kα inhibitory activity of compounds of the present invention was quantified employing the HTRF-based PI3K inhibition assay as described below.
(§2) As reagents for the kinase reaction itself and the quantification of the reaction product, the PI3-Kinase HTRF Assay kit from Millipore (#33-017) was used. With this kit the phosphatidylinositol 3,4,5-trisphosphate (PIP3) generated in the kinase reaction is detected by displacement of a biotinylated ligand from an energy transfer complex consisting of a Europium-labeled anti-GST monoclonal antibody, a GST-tagged PH domain, biotinylated PIP3 and Streptavidin-Allophycocyanin (APC).
For the assay 50 nL of a 80-fold concentrated solution of the test compound in DMSO was pipetted into a black low volume 384-well microtiter plate (Greiner Bio-One, Frickenhausen, Germany), 3 μL of a solution of PI3Kα and phosphatidylinositol-4,5-bisphosphate (PIP2, 13.8 μM=> final conc. in 4 μl reaction volume=10 μM) in 1× reaction buffer (exact composition not disclosed by the vendor) were added and the mixture was incubated for 15 min at 22° C. to allow pre-binding of the test compounds to the enzyme before the start of the kinase reaction. The amount of PI3Kα was chosen to have the enzyme reaction in the linear range and depended on the activity of the individual lot, typical concentrations in assay were in the range of 90 ng/mL. Then the kinase reaction was started by the addition of 1 μL of a solution of adenosine triphosphate (ATP, 40 μM=> final conc. in the 4 μL assay volume is 10 μM) in reaction buffer and the resulting mixture was incubated for a reaction time of 20 min at 22° C.
The reaction was stopped by the addition of 1 μL of an stop solution (containing the biotinylated PIP3 used as a tracer), then 1 μL detection mix (containing a Europium-labeled anti-GST monoclonal antibody, a GST-tagged PH domain, and Streptavidin-Allophycocyanin) was added and resulting mixture was incubated 3 h at 22° C. to allow the formation of complexes between the detection reagents and either the PIP3 generated in the kinase reaction, or the biotinylated PIP3 added with the stop solution. Subsequently, the amount of energy transfer complex consisting of a Europium-labeled anti-GST monoclonal antibody, a GST-tagged PH domain, biotinylated PIP3 and Streptavidin-Allophycocyanin (APC) was evaluated by measurement of the resonance energy transfer from the Europium-labeled anti-GST monoclonal antibody to the Streptavidin-Allophycocyanin. Therefore, the fluorescence emissions at 620 nm and 665 nm after excitation at 350 nm were measured using a TR-FRET reader, e.g., a Pherastar (BMG Labtechnologies, Offenburg, Germany) or a Viewlux (Perkin-Elmer). The ratio of the emissions at 665 nm and at 622 nm was taken as the measure for the amount of biotinylated PIP3 bound to the GST-tagged PH domain, which is negatively correlated with the amount of PIP3 generated.

[2] = target: PI3Kβ (complex of human p110β and human p85α) (Homo sapiens (Human), UniProt P42338); assay: PI3Kβ kinase assay (HTRF-based PI3K inhibition assay); format: biochemical; conditions: for inhibition at 0.93 µM: 0.93 μM compound, read-out: PI3K beta average % Inhibition at 0.93 μM; for IC50: 10 μM ATP, 10 μM PIP2, 20 min at 22° C., read-out: average IC50 in the PI3K beta biochemical assay; for PI3K beta average IC50/PI3K alpha average IC50: ratio of beta IC50 to alpha IC50;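 on all read-outs here: Kinase-made PIP3 detected by HTRF, displacing biotinylated PIP3 tracer from a complex of Europium anti-GST antibody, GST-fused PH domain and Streptavidin-APC, read as Europium-to-APC energy transfer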
Sequence of PI3Kβ (complex of human p110β and human p85α) (P42338 whole entry, the tested form may be a part): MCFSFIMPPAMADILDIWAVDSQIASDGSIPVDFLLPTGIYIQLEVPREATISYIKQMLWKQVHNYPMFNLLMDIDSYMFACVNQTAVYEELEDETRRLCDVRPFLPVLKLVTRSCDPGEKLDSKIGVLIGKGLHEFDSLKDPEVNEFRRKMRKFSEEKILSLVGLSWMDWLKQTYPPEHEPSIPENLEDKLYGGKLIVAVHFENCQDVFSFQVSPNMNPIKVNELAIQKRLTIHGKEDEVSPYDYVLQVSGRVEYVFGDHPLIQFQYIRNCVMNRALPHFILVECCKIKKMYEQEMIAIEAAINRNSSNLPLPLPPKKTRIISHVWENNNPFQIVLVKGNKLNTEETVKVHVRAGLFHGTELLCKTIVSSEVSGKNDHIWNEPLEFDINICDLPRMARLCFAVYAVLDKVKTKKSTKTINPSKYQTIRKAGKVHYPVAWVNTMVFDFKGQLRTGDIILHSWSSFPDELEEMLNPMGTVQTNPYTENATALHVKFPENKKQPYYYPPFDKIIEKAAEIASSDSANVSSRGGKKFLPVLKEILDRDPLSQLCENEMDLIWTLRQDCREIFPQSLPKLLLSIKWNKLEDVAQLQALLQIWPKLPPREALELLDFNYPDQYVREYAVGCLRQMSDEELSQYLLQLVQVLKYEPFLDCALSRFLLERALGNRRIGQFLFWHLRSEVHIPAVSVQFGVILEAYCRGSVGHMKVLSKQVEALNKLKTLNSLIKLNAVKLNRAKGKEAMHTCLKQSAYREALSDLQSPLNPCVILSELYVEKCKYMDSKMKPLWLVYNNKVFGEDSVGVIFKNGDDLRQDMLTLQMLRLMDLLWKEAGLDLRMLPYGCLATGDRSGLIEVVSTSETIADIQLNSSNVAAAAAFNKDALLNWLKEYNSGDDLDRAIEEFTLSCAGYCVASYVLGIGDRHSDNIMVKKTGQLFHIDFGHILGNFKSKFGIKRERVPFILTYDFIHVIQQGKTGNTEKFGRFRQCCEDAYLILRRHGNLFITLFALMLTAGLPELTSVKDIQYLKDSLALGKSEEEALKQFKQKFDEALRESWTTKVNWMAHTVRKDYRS
Sequence of PI3Kβ (complex of human p110β and human p85α) (P27986 whole entry partner, the tested form may be a part): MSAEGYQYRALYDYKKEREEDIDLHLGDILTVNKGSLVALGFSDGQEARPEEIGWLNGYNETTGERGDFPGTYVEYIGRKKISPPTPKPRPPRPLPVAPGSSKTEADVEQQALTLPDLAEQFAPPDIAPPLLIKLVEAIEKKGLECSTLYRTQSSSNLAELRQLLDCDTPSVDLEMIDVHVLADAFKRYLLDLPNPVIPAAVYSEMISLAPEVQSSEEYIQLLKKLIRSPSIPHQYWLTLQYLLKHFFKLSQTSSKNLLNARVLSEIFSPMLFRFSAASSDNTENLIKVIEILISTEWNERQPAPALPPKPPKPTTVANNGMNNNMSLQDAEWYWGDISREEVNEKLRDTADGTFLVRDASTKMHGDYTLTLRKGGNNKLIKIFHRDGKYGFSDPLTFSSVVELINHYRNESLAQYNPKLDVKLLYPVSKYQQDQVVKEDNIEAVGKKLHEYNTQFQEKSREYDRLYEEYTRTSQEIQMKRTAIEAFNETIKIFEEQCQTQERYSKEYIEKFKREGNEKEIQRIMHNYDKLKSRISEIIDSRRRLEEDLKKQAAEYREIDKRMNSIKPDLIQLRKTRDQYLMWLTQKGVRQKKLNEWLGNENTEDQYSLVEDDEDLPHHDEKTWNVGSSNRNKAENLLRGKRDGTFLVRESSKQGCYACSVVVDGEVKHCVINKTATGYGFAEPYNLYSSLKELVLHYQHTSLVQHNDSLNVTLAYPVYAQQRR
Description: as §1
PI3Kα inhibitory activity of compounds of the present invention was quantified employing the HTRF based PI3K inhibition assay as described below.
as §2
For the assay 50 nL of a 80-fold concentrated solution of the test compound in DMSO was pipetted into a black low volume 384-well microtiter plate (Greiner Bio-One, Frickenhausen, Germany), 3 μl of a solution of PI3Kβ and phosphatidylinositol-4,5-bisphosphate (PIP2, 13.8 μM=> final conc. in 4 μl reaction volume=10 μM) in 1× reaction buffer (exact composition not disclosed by the vendor) were added and the mixture was incubated for 15 min at 22° C. to allow pre-binding of the test compounds to the enzyme before the start of the kinase reaction. The amount of PI3Kβ was chosen to have the enzyme reaction in the linear range and depended on the activity of the individual lot, typical concentrations in assay were in the range of 120 ng/mL. Then the kinase reaction was started by the addition of 1 μL of a solution of adenosine triphosphate (ATP, 40 μM=> final conc. in the 4 μl assay volume is 10 μM) in reaction buffer and the resulting mixture was incubated for a reaction time of 20 min at 22° C.
The reaction was stopped by the addition of 1 μL of an stop solution (containing the biotinylated PIP3 used as a tracer). Then 1 μL detection mix (containing a Europium-labeled anti-GST monoclonal antibody, a GST-tagged PH domain, and Streptavidin-Allophycocyanin) was added and resulting mixture was incubated for 3 h at 22° C. to allow the formation of complexes between the detection reagents and either the PIP3 generated in the kinase reaction, or the biotinylated PIP3 added with the stop solution. Subsequently the amount of energy transfer complex consisting of a Europium-labeled anti-GST monoclonal antibody, a GST-tagged PH domain, biotinylated PIP3 and Streptavidin-Allophycocyanin (APC) was evaluated by measurement of the resonance energy transfer from the Europium-labeled anti-GST monoclonal antibody to the Streptavidin-Allophycocyanin. Therefore, the fluorescence emissions at 620 nm and 665 nm after excitation at 350 nm were measured using a TR-FRET reader, e.g., a Pherastar (BMG Labtechnologies, Offenburg, Germany) or a Viewlux (Perkin-Elmer). The ratio of the emissions at 665 nm and at 622 nm were taken as the measure for the amount of biotinylated PIP3 bound to the GST-tagged PH domain, which is negatively correlated with the amount of PIP3 generated.

Sequence of PI3Kα (complex of human p110α and human p85α) (P42336 whole entry, the tested form may be a part): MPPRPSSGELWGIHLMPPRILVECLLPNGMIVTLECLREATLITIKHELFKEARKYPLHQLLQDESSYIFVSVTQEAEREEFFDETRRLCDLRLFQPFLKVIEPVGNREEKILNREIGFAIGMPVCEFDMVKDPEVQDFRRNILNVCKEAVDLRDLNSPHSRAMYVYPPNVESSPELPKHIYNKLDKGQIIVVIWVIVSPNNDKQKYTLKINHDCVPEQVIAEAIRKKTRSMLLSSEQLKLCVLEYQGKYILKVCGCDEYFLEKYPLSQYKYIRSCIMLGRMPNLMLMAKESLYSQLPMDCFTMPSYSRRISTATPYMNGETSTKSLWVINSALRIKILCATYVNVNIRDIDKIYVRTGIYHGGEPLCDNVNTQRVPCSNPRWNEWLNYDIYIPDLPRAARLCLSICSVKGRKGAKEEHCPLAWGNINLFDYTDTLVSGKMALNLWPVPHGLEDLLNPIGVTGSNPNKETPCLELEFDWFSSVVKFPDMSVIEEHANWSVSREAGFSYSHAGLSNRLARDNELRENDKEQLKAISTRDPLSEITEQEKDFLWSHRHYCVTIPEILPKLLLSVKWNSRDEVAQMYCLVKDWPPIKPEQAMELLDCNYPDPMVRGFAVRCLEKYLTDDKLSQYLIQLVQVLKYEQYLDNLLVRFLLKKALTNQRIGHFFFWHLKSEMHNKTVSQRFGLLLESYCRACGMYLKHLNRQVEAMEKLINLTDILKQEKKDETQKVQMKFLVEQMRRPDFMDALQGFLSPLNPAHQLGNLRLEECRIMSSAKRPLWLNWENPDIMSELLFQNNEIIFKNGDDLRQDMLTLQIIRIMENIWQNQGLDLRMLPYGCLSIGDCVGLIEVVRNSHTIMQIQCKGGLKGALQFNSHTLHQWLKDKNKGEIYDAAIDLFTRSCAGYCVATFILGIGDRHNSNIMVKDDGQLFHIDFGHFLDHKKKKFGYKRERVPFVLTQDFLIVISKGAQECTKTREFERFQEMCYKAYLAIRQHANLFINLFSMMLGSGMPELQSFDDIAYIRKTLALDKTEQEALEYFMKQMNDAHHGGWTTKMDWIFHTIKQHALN
Sequence of PI3Kα (complex of human p110α and human p85α) (P27986 whole entry partner, the tested form may be a part): as the sequence (P27986 whole entry partner, the tested form may be a part) above

| SMILES | inhibition at 0.93 µM [1] [%] | IC50 [1] [nM] | inhibition at 0.93 µM [2] [%] | IC50 [2] [nM] | PI3K beta average IC50/PI3K alpha average IC50 [2] |
| --- | --- | --- | --- | --- | --- |
| COc1c(OC[C@H](O)CN2CC3CCC(C2)O3)ccc2c1N=C(NC(=O)c1cccnc1)N1CCN=C21 [Example 5, N-(8-{[(2R)-2-hydroxy-3-(8-oxa-3-azabicyclo[3.2.1]oct-3-yl)propyl]oxy}-7-methoxy-2,3-dihydroimidazo[1,2-c]quinazolin-5-yl)pyridine-3-carboxamide] | 101 | < 10 | 104 | 10 to 50 | 3.68 |
| COc1c(OCC(O)CN2CCOCC2)ccc2c1N=C(NC(=O)c1ccc(N)nc1)N1CCN=C21 (stereo not drawn) [Example 21, 6-amino-N-{8-[2-hydroxy-3-(morpholin-4-yl)propoxy]-7-methoxy-2,3-dihydroimidazo[1,2-c]quinazolin-5-yl}pyridine-3-carboxamide] |  | < 10 |  | 10 to 50 | 9.37 |
| COc1c(OCC(O)CN(C)C)ccc2c1N=C(NC(=O)c1cccnc1)N1CCN=C21 (stereo not drawn) [Example 10, N-{8-[3-(dimethylamino)-2-hydroxypropoxy]-7-methoxy-2,3-dihydroimidazo[1,2-c]quinazolin-5-yl}pyridine-3-carboxamide] | 96.3 | < 10 | 98.1 | 10 to 50 | 5.47 |
| COc1c(OC[C@H](O)CN(C(C)C)C(C)C)ccc2c1N=C(NC(=O)c1cccnc1)N1CCN=C21 [Example 12, N-(8-{[(2R)-3-(dipropan-2-ylamino)-2-hydroxypropyl]oxy}-7-methoxy-2,3-dihydroimidazo[1,2-c]quinazolin-5-yl)pyridine-3-carboxamide] | 104 | < 10 | 115 | 10 to 50 | 4.74 |
| COc1c(OCC(O)CN2CCOCC2)ccc2c1N=C(NC(=O)c1cnc(N)nc1)N1CCN=C21 (stereo not drawn) [Example 25, 2-Amino-N-{8-[2-hydroxy-3-(morpholin-4-yl)propoxy]-7-methoxy-2,3-dihydroimidazo[1,2-c]quinazolin-5-yl}pyrimidine-5-carboxamide] | 92.7 | < 10 | 93.3 | < 10 | 8.30 |
| COc1c(OC[C@H](O)CN2CCOCC2)ccc2c1N=C(NC(=O)c1ccc(N)nc1C)N1CCN=C21 [Example 23, 6-Amino-N-(8-{[(2R)-2-hydroxy-3-(morpholin-4-yl)propyl]oxy}-7-methoxy-2,3-dihydroimidazo[1,2-c]quinazolin-5-yl)-2-methylpyridine-3-carboxamide] | 105 | < 10 | 119 | 10 to 50 | 7.30 |
| COc1c(OCC(O)CN2CCOCC2)ccc2c1N=C(NC(=O)c1cccnc1)N1CCN=C21 (stereo not drawn) [Comparative Example 1, N-{8-[2-hydroxy-3-(morpholin-4-yl)propoxy]-7-methoxy-2,3-dihydroimidazo[1,2-c]quinazolin-5-yl}pyridine-3-carboxamide, reference compound] | 97.4 |  | 92.1 |  |  |
| COc1c(OC[C@H](O)CN2CCC2)ccc2c1N=C(NC(=O)c1cncs1)N1CCN=C21 [Example 35, N-(8-{[(2R)-3-(Azetidin-1-yl)-2-hydroxypropyl]oxy}-7-methoxy-2,3-dihydroimidazo[1,2-c]quinazolin-5-yl)-1,3-thiazole-5-carboxamide] | 109 | < 10 | 102 | 10 to 50 | 6.30 |
| COc1c(OCC(O)CN2CCSCC2)ccc2c1N=C(NC(=O)c1cccnc1)N1CCN=C21 (stereo not drawn) [Example 6, N-{8-[2-hydroxy-3-(thiomorpholin-4-yl)propoxy]-7-methoxy-2,3-dihydroimidazo[1,2-c]quinazolin-5-yl}pyridine-3-carboxamide] | 91.2 | < 10 | 84.1 | > 50 |  |

The next lines start with the values.

| inhibition at 0.93 µM [1] [%] | IC50 [1] [nM] | inhibition at 0.93 µM [2] [%] | IC50 [2] [nM] | PI3K beta average IC50/PI3K alpha average IC50 [2] | SMILES |
| --- | --- | --- | --- | --- | --- |
| 109 | < 10 | 87.2 | 10 to 50 | 5.36 | COc1c(OC[C@H](O)CN2C[C@@H](C)O[C@@H](C)C2)ccc2c1N=C(NC(=O)c1cccnc1C)N1CCN=C21 [Example 17, N-[8-({(2R)-3-[(2R,6S)-2,6-dimethylmorpholin-4-yl]-2-hydroxypropyl}oxy)-7-methoxy-2,3-dihydroimidazo[1,2-c]quinazolin-5-yl]-2-methylpyridine-3-carboxamide] |
| 85.1 | 10 to 50 | 94.7 | 10 to 50 | 1.99 | COc1c(OC[C@H](O)CN2CCCC2)ccc2c1N=C(NC(=O)c1cncnc1)N1CCN=C21 [Example 24, N-(8-{[(2R)-2-hydroxy-3-(pyrrolidin-1-yl)propyl]oxy}-7-methoxy-2,3-dihydroimidazo[1,2-c]quinazolin-5-yl)pyrimidine-5-carboxamide] |
| 103 | < 10 | 91.2 | 10 to 50 | 2.78 | COc1c(OC[C@H](O)CN2CCCCC2)ccc2c1N=C(NC(=O)c1cccnc1C)N1CCN=C21 [Example 19, N-(8-{[(2R)-2-Hydroxy-3-(piperidin-1-yl)propyl]oxy}-7-methoxy-2,3-dihydroimidazo[1,2-c]quinazolin-5-yl)-2-methylpyridine-3-carboxamide] |
| 92.4 | < 10 | 93.9 | 10 to 50 | 3.41 | COc1c(OC[C@H](O)CN2CCCC2)ccc2c1N=C(NC(=O)c1cncs1)N1CCN=C21 [Example 36, N-(8-{[(2R)-2-Hydroxy-3-(pyrrolidin-1-yl)propyl]oxy}-7-methoxy-2,3-dihydroimidazo[1,2-c]quinazolin-5-yl)-1,3-thiazole-5-carboxamide] |
| 96.9 | < 10 | 103 | 10 to 50 | 3.90 | COc1c(OC[C@H](O)CN2CCCC2)ccc2c1N=C(NC(=O)c1cccnc1C)N1CCN=C21 [Example 18, N-(8-{[(2R)-2-hydroxy-3-(pyrrolidin-1-yl)propyl]oxy}-7-methoxy-2,3-dihydroimidazo[1,2-c]quinazolin-5-yl)-2-methylpyridine-3-carboxamide] |
| 99.5 | 10 to 50 | 97.3 | > 50 | 2.22 | COc1c(OC[C@H](O)CN2CCC2)ccc2c1N=C(NC(=O)c1cccnc1)N1CCN=C21 [Example 7, N-(8-{[(2R)-3-(azetidin-1-yl)-2-hydroxypropyl]oxy}-7-methoxy-2,3-dihydroimidazo[1,2-c]quinazolin-5-yl)pyridine-3-carboxamide] |
